Test results: ChEMBL document CHEMBL1151186, “Ether-linked biflavonoids from Quintinia acutifolia” (J Nat Prod, 2004)
≈ marks a conversion by molar mass, not a printed value. Calls of active or inactive are those of the source. No cut-off for these calls is given here.

Experiments:
Bacillus subtilis [1] = assay: Antimicrobial activity against Bacillus subtilis ATCC 19659 at 150 ug/disk; format: functional, organism-based
P388 [2] = assay: Cytotoxicity against mouse P388 cells; format: functional, cell-based
P388 [3] = assay: Cytotoxicity against mouse P388 cells at 0.06 ug/mL; format: functional
Bacillus subtilis [4] = assay: Antimicrobial activity against Bacillus subtilis ATCC 19659 at 30 ug/disk; format: functional; details: read-out: IZ

For `O=C1CC(c2ccc(Oc3cc(-c4cc(=O)c5c(O)cc(O)cc5o4)ccc3O)cc2)Oc2cc(O)cc(O)c21` (centres undefined), the Activity (Bacillus subtilis [1]) was “inactive” and the IC50 (P388 [2]) was 3.1 µg/mL (≈ 5.74 µM).
`COc1cc(O)c2c(c1)OC(c1ccc(Oc3cc(C4CC(=O)c5c(O)cc(OC)cc5O4)ccc3O)cc1)CC2=O` (centres undefined) was tested, and the Activity (Bacillus subtilis [1]) was “inactive” and the IC50 (P388 [2]) was 8.7 µg/mL (≈ 15.2 µM).
`COc1cc(O)c2c(c1)OC(c1ccc(O)c(Oc3ccc(C4CC(=O)c5c(O)cc(O)cc5O4)cc3)c1)CC2=O` (centres undefined) was tested, and the Activity (Bacillus subtilis [1]) was “inactive”.
With `O=C1CC(c2ccc(Oc3cc(C4CC(=O)c5c(O)cc(O)cc5O4)ccc3O)cc2)Oc2cc(O)cc(O)c21` (centres undefined) the Activity (Bacillus subtilis [1]) was “inactive” and the IC50 (P388 [2]) was 8.2 µg/mL (≈ 15.1 µM).
For `CO[C@@]12[C@H](COC(N)=O)C3=C(C(=O)C(C)=C(N)C3=O)N1C[C@@H]1N[C@@H]12` [MITOMYCIN], the Activity (P388 [3]) was 43%.
`O=C(N[C@H](CO)[C@H](O)c1ccc([N+](=O)[O-])cc1)C(Cl)Cl` [CHLORAMPHENICOL] gave a zone of inhibition at 30 µg/disc (Bacillus subtilis [4]) of 12 mm.
